The compounds below were run against human mGluR2 (Homo sapiens (Human), UniProt Q14416) (assay: [35S]GTPγS binding assay (Affinity to mGluR2)). Settings: cell membrane fraction of HEK293 cells stably expressing human mGluR2; glutamic acid 10 μM.
Chain of human mGluR2 (Q14416 19-872): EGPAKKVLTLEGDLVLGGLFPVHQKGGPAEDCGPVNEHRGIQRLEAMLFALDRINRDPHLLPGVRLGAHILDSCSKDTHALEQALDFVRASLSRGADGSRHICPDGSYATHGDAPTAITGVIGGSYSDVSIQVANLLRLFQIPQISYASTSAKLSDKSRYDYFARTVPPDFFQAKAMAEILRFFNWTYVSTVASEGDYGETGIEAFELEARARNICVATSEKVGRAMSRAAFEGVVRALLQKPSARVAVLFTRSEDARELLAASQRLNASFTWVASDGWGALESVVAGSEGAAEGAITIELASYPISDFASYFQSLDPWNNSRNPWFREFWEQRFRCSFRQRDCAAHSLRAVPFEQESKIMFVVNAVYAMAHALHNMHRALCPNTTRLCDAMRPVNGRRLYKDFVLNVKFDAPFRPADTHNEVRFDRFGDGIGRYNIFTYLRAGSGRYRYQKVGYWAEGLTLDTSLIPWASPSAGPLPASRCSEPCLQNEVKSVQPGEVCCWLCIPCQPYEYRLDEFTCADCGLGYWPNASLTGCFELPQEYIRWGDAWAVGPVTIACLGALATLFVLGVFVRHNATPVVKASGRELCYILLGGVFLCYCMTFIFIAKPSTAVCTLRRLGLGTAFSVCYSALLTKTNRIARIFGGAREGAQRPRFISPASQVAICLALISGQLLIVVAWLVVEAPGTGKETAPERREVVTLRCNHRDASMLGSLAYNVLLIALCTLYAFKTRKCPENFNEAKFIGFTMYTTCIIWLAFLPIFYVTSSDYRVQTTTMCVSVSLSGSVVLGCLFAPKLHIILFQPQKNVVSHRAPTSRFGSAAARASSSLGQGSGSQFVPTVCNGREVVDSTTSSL
Type: biochemical
Experimental: (Preparation of Cell Membrane Fraction of HEK293 Cells Stably Expressing Human Metabotropic Glutamate Receptor 2 (mGluR2))
HEK293 cells stably expressing human mGluR2 and human glutamate transporter SLC1A3 were cultured in a Dulbecco's modified Eagle's medium with 10% fetal bovine serum (50 units/mL of penicillin, 50 μg/mL of streptomycin, 60 μg/mL of geneticin, 400 μg/mL of hygromycin B and 2 mM of glutamine) at 37° C. under 5% CO2. Confluent cell cultures were washed twice with PBS(−), and then scraped off with a cell scraper, and subjected to centrifugal separation at 4° C. and 1500 rpm for 5 minutes for collecting cells. The centrifuged sediment (cell pellet) was homogenized in a 20 mM HEPES buffer containing 10 mM EDTA (pH 7.4) by using sonicator and centrifuged at 4° C. and 1500×g for 30 minutes. The supernatant (soluble fraction) was subjected to the centrifugal separation at 4° C. and 40,000×g for 30 minutes, and thus, insoluble fraction was obtained. After additional centrifugally washing the obtained fraction with 20 mM HEPES buffer containing 10 mM EDTA (pH 7.4), the pellet was centrifugally suspended with a 20 mM HEPES buffer containing 0.1 mM EDTA, and the cell membrane fraction was obtained by the centrifugal separation at 4° C. and 40,000×g for 30 minutes. The thus obtained cell membrane fraction was suspended in a 20 mM HEPES buffer containing 0.1 mM EDTA in a protein concentration of 3 mg/mL, which was stored at −80° C.
([^35S]GTPγS Binding Assay)
The frozen cell membrane fraction prepared as described above was thawed before use, and the resultant was diluted with a buffer for a binding assay (final concentrations: 20 mM HEPES, 100 mM NaCl, 1 mM MgCl2, 3 μM GDP, 300 μg/mL saponin, 0.1% BSA). The compound of each example was added to a cell membrane fraction containing 1.8 to 3 μg/assay of membrane protein on a plate, followed by incubation at room temperature for 30 minutes. Thereafter, with glutamic acid (in a final concentration of 10 μM) added thereto, incubation was performed at room temperature for 15 minutes, and thereafter, [^35S]GTPγS (in a final concentration of 0.8 kBq) and 588 μg WGA-SPA beads were added thereto, followed by incubation at room temperature for 1 hour. After the incubation, the plate was subjected to the centrifugal separation at 2,500 rpm and room temperature, and then, membrane cell binding radioactivity was measured with a top count.
A [^35S]GTPγS binding amount obtained by performing the above-described reaction in the absence of glutamic acid was defined as nonspecific binding, and a difference from a [^35S]GTPγS binding amount obtained in the presence of glutamic acid was defined as specific binding. On the basis of ratios of inhibiting the specific binding at various concentrations of the compounds of the respective examples, inhibition curves were obtained. Concentrations of the compounds of the respective examples at which the specific [^35S]GTPγS binding amount was suppressed by 50% (IC50 values) were calculated on the basis of the inhibition curves and shown in Tables 8 and 9.
`Cc1cc(-c2nc(-c3ccc(OC4CC4)c(C)c3)n3c2CCO[C@H](C)C3)cc(C)n1` [Example 20, (R)-3-(4-cyclopropoxy-3-methylphenyl)-1-(2,6-dimethylpyridin-4-yl)-6-methyl-5,6,8,9-tetrahydroimidazo[1,5-d][1,4]oxazepine] showed an IC50 of 3.4 nM. `Cc1cc(-c2nc(-c3ccc(Cl)c(Cl)c3)n3c2CCO[C@H](C)C3)cc(CF)n1` [Example 89] gave an IC50 of 13.2 nM. With `Cc1cc(-c2nc(-c3ccc(OC(F)(F)F)c(C#N)c3)n3c2CCOCC3)cc(C)n1` [Example 116] the IC50 was 33.8 nM. `CCOc1ccc(-c2nc(-c3cc(C)nc(C)c3)c3n2C[C@@H](C)OCC3)cc1Cl` [Example 34, (R)-3-(3-chloro-4-ethoxyphenyl)-1-(2,6-dimethylpyridin-4-yl)-6-methyl-5,6,8,9-tetrahydroimidazo[1,5-d][1,4]oxazepine] was tested, and the IC50 was 2.8 nM. `COc1cc(-c2nc(-c3cc(C)nc(C)c3)c3n2C[C@@H](C(F)F)OCC3)ccc1Cl` [Example 79] showed an IC50 of 30.4 nM. `COc1ccc(-c2nc(-c3cc(C)nc(C)c3)c3n2C[C@@H](C)OCC3)cc1C` [Example 18, (R)-1-(2,6-dimethylpyridin-4-yl)-3-(4-methoxy-3-methylphenyl)-6-methyl-5,6,8,9-tetrahydroimidazo[1,5-d][1,4]oxazepine] was tested, and the IC50 was 12.3 nM. `Cc1cc(-c2nc(-c3ccc(Cl)cc3)n3c2CCO[C@H](C)C3)cc(C)n1` [Example 61] showed an IC50 of 21.7 nM. With `COc1cc(-c2nc(-c3ccnc(C)c3)c3n2CCOCC3)ccc1C(F)(F)F` [Example 123] the IC50 was 36 nM. `Cc1cc(-c2nc(-c3ccc(Cl)c(Cl)c3)n3c2CCO[C@H](CF)C3)ccn1` [Example 75] gave an IC50 of 31 nM. For `Cc1cc(-c2nc(-c3ccc(OC4CC4)c(Cl)c3)n3c2CCO[C@H](C)C3)cc(C)n1` [Example 19, (R)-3-(3-chloro-4-cyclopropoxyphenyl)-1-(2,6-dimethylpyridin-4-yl)-6-methyl-5,6,8,9-tetrahydroimidazo[1,5-d][1,4]oxazepine], the IC50 was 3 nM. `Cc1cc(-c2nc(-c3ccc(C(F)(F)F)c(Cl)c3)n3c2CCOCC3)cc(C)n1` [Example 109] was tested, and the IC50 was 9.1 nM. For `Cc1cc(-c2nc(-c3ccc(F)c(OCC4CCC4)c3)n3c2CCO[C@H](C)C3)cc(C)n1` [Example 98], the IC50 was 3.1 nM. `Cc1cc(-c2nc(-c3ccc(Cl)c(C)c3)n3c2CCO[C@H](CF)C3)ccn1` [Example 74] showed an IC50 of 35.3 nM. `COc1ccc(-c2nc(-c3cc(C)nc(C)c3)c3n2C[C@@H](C)OCC3)cc1F` [Example 59] showed an IC50 of 96.3 nM. `Cc1cc(-c2nc(-c3ccc(F)c(OCC4CC4)c3)n3c2CCOCC3)cc(C)n1` [Example 94] was tested, and the IC50 was 34.9 nM. `Cc1cc(-c2nc(-c3ccc(OC(C)C)c(Cl)c3)n3c2CCO[C@H](C)C3)cc(C)n1` [Example 35, (R)-3-(3-chloro-4-isopropoxyphenyl)-1-(2,6-dimethylpyridin-4-yl)-6-methyl-5,6,8,9-tetrahydroimidazo[1,5-d][1,4]oxazepine] gave an IC50 of 2.7 nM. Compound `COc1ccc(-c2nc(-c3ccnc(C)c3)c3n2C[C@@H](C)OCC3)cc1F` [Example 60] has an IC50 of 119 nM. With `COc1cc(-c2nc(-c3ccnc(C)c3)c3n2C[C@@H](CF)OCC3)ccc1OC(F)(F)F` [Example 17, (S)-6-(fluoromethyl)-3-(3-methoxy-4-(trifluoromethoxy)phenyl)-1-(2-methylpyridin-4-yl)-5,6,8,9-tetrahydroimidazo[1,5-d][1,4]oxazepine] the IC50 was 3.8 nM. Work on `COc1cc(-c2nc(-c3cc(C)nc(C)c3)c3n2CCOCC3)ccc1OC(F)(F)F` [Example 117] yielded an IC50 of 22 nM. In the case of `Cc1cc(-c2nc(-c3ccc(OC(F)(F)F)c(F)c3)n3c2CCOCC3)cc(C)n1` [Example 106], the IC50 is reported as 20.9 nM. `Cc1cc(-c2nc(-c3ccnc(F)c3)c3n2CCOCC3)ccc1OC(F)(F)F` [Example 115] was tested, and the IC50 was 61.7 nM. `Cc1cc(-c2nc(-c3ccc(Cl)c(C(F)(F)F)c3)n3c2CCOCC3)cc(C)n1` [Example 108] gave an IC50 of 19.2 nM. For `Cc1cc(-c2nc(-c3ccc(Cl)c(C(F)F)c3)n3c2CCOCC3)ccn1` [Example 126], the IC50 was 8.4 nM. For `COc1cc(-c2nc(-c3cc(C)nc(C)c3)c3n2CCOCC3)ccc1C(F)(F)F` [Example 122], the IC50 was 22.1 nM.

Same assay, conditions: cell membrane fraction of HEK293 cells stably expressing human mGluR2; glutamic acid 10 μM; inhibition of specific [35S]GTPγS binding
For `Cc1cc(-c2nc(-c3ccc(OC(F)(F)F)c(F)c3)n3c2CCO[C@H](CF)C3)cc(CO)n1` [Example 170], the IC50 was 43.1 nM. `Cc1cc(-c2nc(-c3ccc(OC4CC4)c(Cl)c3)n3c2CCO[C@H](C)C3)ccn1` [Example 159] gave an IC50 of 5 nM. In the case of `Cc1cc(-c2nc(-c3ccc(OC(F)F)c(CO)c3)n3c2CCO[C@H](C)C3)ccn1` [Example 237], the IC50 is reported as 30.3 nM. With `COc1cc(-c2nc(-c3ccnc(C)c3)c3n2C[C@@H](CF)OCC3)ccc1OC(F)F` [Example 164] the IC50 was 36.8 nM. `COc1cc(-c2nc(-c3ccnc(C)c3)c3n2C[C@@H](C)OCC3)ccc1C(C)(F)F` [Example 240] showed an IC50 of 46.9 nM. `Cc1cc(-c2nc(-c3ccc(C(F)F)c(Cl)c3)n3c2CCO[C@H](C)C3)cc(C)n1` [Example 146] was tested, and the IC50 was 22.2 nM. With `Cc1cc(-c2nc(-c3ccc(F)c(OC(F)F)c3)n3c2CCO[C@H](C)C3)cc(C)n1` [Example 184] the IC50 was 13.7 nM. Compound `Cc1cc(-c2nc(-c3ccc(OC(C)C)c(C)c3)n3c2CCO[C@H](C)C3)cc(C)n1` [Example 242] has an IC50 of 2.4 nM. With `COc1ccc(-c2nc(-c3cc(C)nc(C)c3)c3n2C[C@@H](CF)OCC3)cc1C` [Example 245] the IC50 was 5.2 nM. Work on `Cc1cc(-c2nc(-c3ccc(OC(F)(F)F)c(F)c3)n3c2CCO[C@H](C)C3)cc(C)n1` [Example 147] yielded an IC50 of 10.5 nM. For `Cc1cc(-c2nc(-c3ccc(OC(C)C)c(C)c3)n3c2CCO[C@H](CF)C3)cc(C)n1` [Example 244], the IC50 was 1.8 nM. For `Cc1cc(-c2nc(-c3ccc(C)c(OCC(C)C)c3)n3c2CCO[C@H](C)C3)cc(C)n1` [Example 227], the IC50 was 22 nM. `Cc1cc(-c2nc(-c3ccc(C)c(OCC4CC4)c3)n3c2CCO[C@H](C)C3)ccn1` [Example 224] gave an IC50 of 50.4 nM. `Cc1cc(-c2nc(-c3ccc(OC(F)(F)F)c(F)c3)n3c2CCO[C@H](C)C3)cc(CF)n1` [Example 206] gave an IC50 of 18.7 nM. In the case of `Cc1cc(-c2nc(-c3ccc(OC(F)(F)F)c(C#N)c3)n3c2CCO[C@H](C)C3)cc(CF)n1` [Example 203], the IC50 is reported as 4.9 nM. `Cc1cc(-c2nc(-c3ccc(OC(F)(F)F)c(C)c3)n3c2CCO[C@H](CF)C3)ccn1` [Example 162] showed an IC50 of 5 nM. `Cc1cc(-c2nc(-c3ccc(F)c(C(F)(F)F)c3)n3c2CCO[C@H](C)C3)cc(C)n1` [Example 143] showed an IC50 of 13.6 nM. For `Cc1cc(-c2nc(-c3ccc(C(F)F)c(Cl)c3)n3c2CCO[C@H](CF)C3)cc(C)n1` [Example 197], the IC50 was 15.1 nM. Work on `CCc1ccc(-c2nc(-c3ccnc(C)c3)c3n2C[C@@H](C)OCC3)cc1OCC1CC1` [Example 221] yielded an IC50 of 26.7 nM. Compound `Cc1cc(-c2nc(-c3ccc(OC(F)F)c(F)c3)n3c2CCO[C@H](C)C3)cc(C)n1` [Example 181] has an IC50 of 16.1 nM. For `CCOc1ccc(-c2nc(-c3cc(C)nc(C)c3)c3n2C[C@@H](C)OCC3)cc1C` [Example 241], the IC50 was 2.9 nM. For `Cc1cc(-c2nc(-c3ccc(OC(F)(F)F)c(C#N)c3)n3c2CCO[C@H](CF)C3)cc(C)n1` [Example 195], the IC50 was 3.7 nM. Work on `Cc1cc(-c2nc(-c3ccc(OC(F)(F)F)c(CF)c3)n3c2CCOCC3)cc(C)n1` [Example 211] yielded an IC50 of 27.1 nM. Work on `Cc1cc(-c2nc(-c3ccc(OC4COC4)c(Cl)c3)n3c2CCO[C@H](C)C3)cc(C)n1` [Example 232] yielded an IC50 of 9.7 nM. `COc1ccc(-c2nc(-c3cc(C)nc(C(F)F)c3)c3n2C[C@@H](C)OCC3)cc1C` [Example 178] gave an IC50 of 17.8 nM. Work on `CCOc1cc(-c2nc(-c3cc(C)nc(C)c3)c3n2CCOCC3)ccc1CC` [Example 213] yielded an IC50 of 10.7 nM. For `COc1cc(-c2nc(-c3cc(C)nc(CF)c3)c3n2C[C@@H](CF)OCC3)ccc1C(F)(F)F` [Example 201], the IC50 was 2.4 nM. `Cc1cc(-c2nc(-c3ccc(OC4CC4)c(C)c3)n3c2CCO[C@H](C)C3)cc(CF)n1` [Example 208] showed an IC50 of 4.7 nM. `Cc1cc(-c2nc(-c3ccc(OC(F)F)c(CF)c3)n3c2CCO[C@H](C)C3)ccn1` [Example 236] showed an IC50 of 2.9 nM.
